According to PubChem BioAssay AID2060622 (Molecular Pharmacology Branch, DTP, NCI, 2025):

Test system: 242566-281-R-J2-PDC complex spheroid viability
Assay: Anticancer human tumor 242566-281-R-J2-PDC patient-derived pancreatic carcinoma cell line growth inhibition [CLK]
Settings: for IC50: curve of first compound; for viability, T/C: stronger effect = lower value
Summary of the method: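 Patient-derived tumor cells grown as complex spheroids with HUVEC endothelial cells and mesenchymal stem cells, treated with drug combinations. Concentrations descend in half-log steps from near clinical Cmax, or from 10 microM if Cmax unknown.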

[1] = second compound 0.0316 µM, first compound 0.0316 µM
[2] = second compound 0.0316 µM, first compound 0.1 µM
[3] = second compound 0.0316 µM, first compound 0.316 µM
[4] = second compound 0.0316 µM, first compound 1 µM
[5] = second compound 0.0316 µM, first compound 3.16 µM
[6] = second compound 0.0316 µM, first compound 10 µM
[7] = second compound 0.1 µM, first compound 0.0316 µM
[8] = second compound 0.1 µM, first compound 0.1 µM
[9] = second compound 0.1 µM, first compound 0.316 µM
[10] = second compound 0.1 µM, first compound 1 µM
[11] = second compound 0.1 µM, first compound 3.16 µM
[12] = second compound 0.1 µM, first compound 10 µM
[13] = second compound 0.316 µM, first compound 0.0316 µM
[14] = second compound 0.316 µM, first compound 0.1 µM
[15] = second compound 0.316 µM, first compound 0.316 µM
[16] = second compound 0.316 µM, first compound 1 µM
[17] = second compound 0.316 µM, first compound 3.16 µM
[18] = second compound 0.316 µM, first compound 10 µM
[19] = second compound 1 µM, first compound 0.0316 µM
[20] = second compound 1 µM, first compound 0.1 µM
[21] = second compound 1 µM, first compound 0.316 µM
[22] = second compound 1 µM, first compound 1 µM
[23] = second compound 1 µM, first compound 3.16 µM
[24] = second compound 1 µM, first compound 10 µM
[25] = second compound 3.16 µM, first compound 0.0316 µM
[26] = second compound 3.16 µM, first compound 0.1 µM
[27] = second compound 3.16 µM, first compound 0.316 µM
[28] = second compound 3.16 µM, first compound 1 µM
[29] = second compound 3.16 µM, first compound 3.16 µM
[30] = second compound 3.16 µM, first compound 10 µM
[31] = second compound 10 µM, first compound 0.0316 µM
[32] = second compound 10 µM, first compound 0.1 µM
[33] = second compound 10 µM, first compound 0.316 µM
[34] = second compound 10 µM, first compound 1 µM
[35] = second compound 10 µM, first compound 3.16 µM
[36] = second compound 10 µM, first compound 10 µM
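Also: spheroids exposed to compounds for 7 days before readout.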
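For viability, T/C in this document: 100% = DMSO vehicle control wells.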

Question: Which results are given for `CC(C)CC(NC(=O)C(Cc1ccccc1)NC(=O)c1cnccn1)B(O)O` (stereo unspecified) + CN1CCN(c2cc(C(=O)Nc3cc4cc(-c5cnn(C)c5)ccc4cn3)ccn2)CC1?
Answer: IC50 (second compound 0.0316 µM): 2.08 nM; IC50 (second compound 0.1 µM): 1.98 nM; IC50 (second compound 0.316 µM): < 0.949 nM; IC50 (second compound 1 µM): < 0.949 nM; IC50 (second compound 3.16 µM): < 0.949 nM; IC50 (second compound 10 µM): < 0.949 nM; viability, T/C (second compound 0.0316 µM, first compound 0.000949 µM): 103%; viability, T/C (second compound 0.0316 µM, first compound 0.003 µM): 25.5%; viability, T/C (second compound 0.0316 µM, first compound 0.00949 µM): 1.28%; viability, T/C (second compound 0.0316 µM, first compound 0.03 µM): 0.43%; viability, T/C (second compound 0.0316 µM, first compound 0.0949 µM): 0.27%; viability, T/C (second compound 0.0316 µM, first compound 0.3 µM): 0.23%; viability, T/C (second compound 0.1 µM, first compound 0.000949 µM): 98.8%; viability, T/C (second compound 0.1 µM, first compound 0.003 µM): 22.7%; viability, T/C (second compound 0.1 µM, first compound 0.00949 µM): 0.52%; viability, T/C (second compound 0.1 µM, first compound 0.03 µM): 0.43%; viability, T/C (second compound 0.1 µM, first compound 0.0949 µM): 0.39%; viability, T/C (second compound 0.1 µM, first compound 0.3 µM): 0.27%; viability, T/C (second compound 0.316 µM, first compound 0.000949 µM): 26.7%; viability, T/C (second compound 0.316 µM, first compound 0.003 µM): 2.24%; viability, T/C (second compound 0.316 µM, first compound 0.00949 µM): 0.29%; viability, T/C (second compound 0.316 µM, first compound 0.03 µM): 0.28%; viability, T/C (second compound 0.316 µM, first compound 0.0949 µM): 0.29%; viability, T/C (second compound 0.316 µM, first compound 0.3 µM): 0.51%; viability, T/C (second compound 1 µM, first compound 0.000949 µM): 5.2%; viability, T/C (second compound 1 µM, first compound 0.003 µM): 1.12%; viability, T/C (second compound 1 µM, first compound 0.00949 µM): 0.43%; viability, T/C (second compound 1 µM, first compound 0.03 µM): 0.31%; viability, T/C (second compound 1 µM, first compound 0.0949 µM): 0.26%; viability, T/C (second compound 1 µM, first compound 0.3 µM): 0.4%; viability, T/C (second compound 3.16 µM, first compound 0.000949 µM): 7.89%; viability, T/C (second compound 3.16 µM, first compound 0.003 µM): 1.95%; viability, T/C (second compound 3.16 µM, first compound 0.00949 µM): 0.39%; viability, T/C (second compound 3.16 µM, first compound 0.03 µM): 0.2%; viability, T/C (second compound 3.16 µM, first compound 0.0949 µM): 0.38%; viability, T/C (second compound 3.16 µM, first compound 0.3 µM): 0.8%; viability, T/C (second compound 10 µM, first compound 0.000949 µM): 1.93%; viability, T/C (second compound 10 µM, first compound 0.003 µM): 1.11%; viability, T/C (second compound 10 µM, first compound 0.00949 µM): 0.3%; viability, T/C (second compound 10 µM, first compound 0.03 µM): 0.44%; viability, T/C (second compound 10 µM, first compound 0.0949 µM): 0.26%; viability, T/C (second compound 10 µM, first compound 0.3 µM): 0.34%

Question: For `CC1COCCN1c1cc(C2(S(C)(=N)=O)CC2)nc(-c2ccnc3[nH]ccc23)n1` (stereo unspecified) + CN1CCN(c2cc(C(=O)Nc3cc4cc(-c5cnn(C)c5)ccc4cn3)ccn2)CC1, which IC50 (second compound 0.0316 µM) is on record?
Answer: 6190 nM

Question: What about the IC50 (second compound 0.1 µM) of the same compound?
Answer: 4500 nM

Question: And the IC50 (second compound 0.316 µM)?
Answer: < 31.6 nM

Question: And the IC50 (second compound 1 µM)?
Answer: < 31.6 nM

Question: And the IC50 (second compound 3.16 µM)?
Answer: < 31.6 nM

Question: What about the IC50 (second compound 10 µM) of the same compound?
Answer: < 31.6 nM

Question: What about the viability, T/C [1] of the same compound?
Answer: 119%

Question: And the viability, T/C [2]?
Answer: 103%

Question: And the viability, T/C [3]?
Answer: 97%

Question: And the viability, T/C [4]?
Answer: 104%

Question: What about the viability, T/C [5] of the same compound?
Answer: 73.8%

Question: And the viability, T/C [6]?
Answer: 31.6%

Question: What about the viability, T/C [7] of the same compound?
Answer: 103%

Question: And the viability, T/C [8]?
Answer: 97.8%

Question: And the viability, T/C [9]?
Answer: 97.3%

Question: And the viability, T/C [10]?
Answer: 83.1%

Question: And the viability, T/C [11]?
Answer: 62.6%

Question: And the viability, T/C [12]?
Answer: 22.6%

Question: What about the viability, T/C [13] of the same compound?
Answer: 36.3%

Question: And the viability, T/C [14]?
Answer: 28.3%

Question: What about the viability, T/C [15] of the same compound?
Answer: 31.2%

Question: And the viability, T/C [16]?
Answer: 20.4%

Question: What about the viability, T/C [17] of the same compound?
Answer: 17.5%

Question: What about the viability, T/C [18] of the same compound?
Answer: 8.72%

Question: And the viability, T/C [19]?
Answer: 4.95%

Question: And the viability, T/C [20]?
Answer: 4.97%

Question: And the viability, T/C [21]?
Answer: 4.82%

Question: And the viability, T/C [22]?
Answer: 5.18%

Question: What about the viability, T/C [23] of the same compound?
Answer: 5.87%

Question: And the viability, T/C [24]?
Answer: 6.94%

Question: What about the viability, T/C [25] of the same compound?
Answer: 7.02%

Question: What about the viability, T/C [26] of the same compound?
Answer: 7.62%

Question: And the viability, T/C [27]?
Answer: 8.37%

Question: And the viability, T/C [28]?
Answer: 7.12%

Question: What about the viability, T/C [29] of the same compound?
Answer: 8.01%

Question: And the viability, T/C [30]?
Answer: 9.37%

Question: What about the viability, T/C [31] of the same compound?
Answer: 2.02%

Question: What about the viability, T/C [32] of the same compound?
Answer: 1.85%

Question: What about the viability, T/C [33] of the same compound?
Answer: 2.1%

Question: And the viability, T/C [34]?
Answer: 1.7%

Question: And the viability, T/C [35]?
Answer: 1.8%

Question: And the viability, T/C [36]?
Answer: 1.35%

Question: What does the source list for `O=C(c1cc(Cc2n[nH]c(=O)c3ccccc23)ccc1F)N1CCN(C(=O)C2CC2)CC1` + CN1CCN(c2cc(C(=O)Nc3cc4cc(-c5cnn(C)c5)ccc4cn3)ccn2)CC1?
Answer: IC50 (second compound 0.0316 µM): > 10000 nM; IC50 (second compound 0.1 µM): > 10000 nM; IC50 (second compound 0.316 µM): < 31.6 nM; IC50 (second compound 1 µM): < 31.6 nM; IC50 (second compound 3.16 µM): < 31.6 nM; IC50 (second compound 10 µM): < 31.6 nM; viability, T/C [1]: 108%; viability, T/C [2]: 98%; viability, T/C [3]: 94.9%; viability, T/C [4]: 95.3%; viability, T/C [5]: 89.6%; viability, T/C [6]: 80.3%; viability, T/C [7]: 96.8%; viability, T/C [8]: 96.9%; viability, T/C [9]: 79.1%; viability, T/C [10]: 85.6%; viability, T/C [11]: 88.3%; viability, T/C [12]: 62.8%; viability, T/C [13]: 33.5%; viability, T/C [14]: 34.3%; viability, T/C [15]: 29.7%; viability, T/C [16]: 31.1%; viability, T/C [17]: 29.2%; viability, T/C [18]: 23.2%; viability, T/C [19]: 5.93%; viability, T/C [20]: 3.31%; viability, T/C [21]: 4.81%; viability, T/C [22]: 4.43%; viability, T/C [23]: 5.12%; viability, T/C [24]: 5.59%; viability, T/C [25]: 7.36%; viability, T/C [26]: 7.02%; viability, T/C [27]: 6.98%; viability, T/C [28]: 7.16%; viability, T/C [29]: 7.79%; viability, T/C [30]: 10.4%; viability, T/C [31]: 1.95%; viability, T/C [32]: 2.1%; viability, T/C [33]: 1.53%; viability, T/C [34]: 2.95%; viability, T/C [35]: 2.41%; viability, T/C [36]: 1.71%
